Laboratory results published in publication PMC11984407, “A natural small molecule isoginkgetin alleviates hypercholesterolemia and atherosclerosis by targeting ACLY” (Theranostics, 2025).

Columns and labels:
[1] = system: high and very high cardiovascular risk patients intolerant to statins; set-up: method as in PMID 36876740; details: statin-intolerant patients, LDL-C ≥100 mg/dL; cited from earlier work
[2] = Copper-induced LDL oxidation, agarose gel electrophoresis; details: varying concentrations, copper 5 μM
Protocol: Prior to oxidation, EDTA was removed from LDL solutions (YB-001; Yiyuan Biotechnologies, Guangzhou, China). Subsequently, LDL solutions at a concentration of 0.2 mg/mL were incubated with varying concentrations of ISOGK in PBS for one h at 37 °C. The oxidation process was initiated by combining both native LDL and LDL pretreated with ISOGK with copper sulfate (99.0% purity; Jinshanting New Chemical Reagent Factory, Shanghai, China) to achieve a final copper concentration of 5 μM in PBS. This mixture was then incubated at 37 °C. Agarose gel electrophoresis was performed utilizing 0.5% agarose gels prepared in a sodium barbital buffer, following the stipulated electrophoretic methodology. The procedure was carried out in a 0.075 M sodium barbital buffer at a constant voltage of 55 V for a duration of one h. The relative electrophoretic mobility (REM) was determined by calculating the ratio of the migration distance of oxidized LDL to that of native LDL.

rhesus monkeys = system: rhesus monkeys; set-up: method as in PMID 36873173; details: two weeks; cited from earlier work

CC(C)(CCCCCC(O)CCCCCC(C)(C)C(=O)O)C(=O)O [Bempedoic acid, bempedoic acid]
primary composite endpoint vs placebo [1]: slight reduction in the primary composite endpoint

Vitamin E [reference compound]
antioxidant activity against copper-induced LDL oxidation (REM) [2]: retards LDL

CC(C)c1c(C(=O)Nc2ccccc2)c(-c2ccccc2)c(-c2ccc(F)cc2)n1CC[C@@H](O)C[C@@H](O)CC(=O)O [atorvastatin]
LDL-C reduction from the baseline (rhesus monkeys): 19.4%
